Assay results as given in patent US5023240A, “Derivatives of tylosin and 10,11,12,13-tetrahydro tylosin and their use in pharmaceuticals” (Sour Pliva, priority 1987, dated 1991).
In brackets after ≈: the same amount, converted by molar mass.

How the values were obtained:
Format in all cases: cell-based
Staph. aureus = assay: antimicrobial activity, MIC by agar dilution method, Staph. aureus; set-up: key to Minimal Inhibitory Concentration: R: resistant; details: 13 test strains, MIC refers to over 90% of tested strains; for MIC90: Staphylococcus aureus, read-out: Minimal Inhibitory Concentration
Procedure: (§1) The antimicrobial activity of some compounds of the present invention was tested on the laboratory strain Sarcina lutea and on 50 various strains isolated from fresh patients' samples. The minimal inhibitory concentration (MIC) was determined by the agar dilution method as described by M. D. Finegold and J. W. Martin, Diagnostic Microbiology, Mosby Comp., St. Louis 1982, p. 536-540.

Strep. agalact. = assay: antimicrobial activity, MIC by agar dilution method, Strep. agalact.; set-up: key to Minimal Inhibitory Concentration: R: resistant; details: 2 test strains, MIC refers to over 90% of tested strains; for MIC90: read-out: Minimal Inhibitory Concentration
Procedure: as §1

Staph. saproph. = assay: antimicrobial activity, MIC by agar dilution method, Staph. saproph.; set-up: key to Minimal Inhibitory Concentration: R: resistant; details: 6 test strains, MIC refers to over 90% of tested strains; for MIC90: read-out: Minimal Inhibitory Concentration
Procedure: as §1

Sarcina lutea = assay: antimicrobial activity, MIC by agar dilution method, Sarcina lutea; details: Micrococcus luteus, 4 test strains, MIC refers to over 90% of tested strains, read-out: Minimal Inhibitory Concentration
Procedure: as §1

Strep. pneumoniae = assay: antimicrobial activity, MIC by agar dilution method, Strep. pneumoniae; set-up: key to Minimal Inhibitory Concentration: R: resistant; details: 3 test strains, MIC refers to over 90% of tested strains; for MIC90: Streptococcus pneumoniae, read-out: Minimal Inhibitory Concentration
Procedure: as §1

Strep. faecalis = assay: antimicrobial activity, MIC by agar dilution method, Strep. faecalis; set-up: key to Minimal Inhibitory Concentration: R: resistant; details: 17 test strains, MIC refers to over 90% of tested strains; for MIC90: Enterococcus faecalis, read-out: Minimal Inhibitory Concentration
Procedure: as §1

MIC90 (Staph. aureus) [µg/mL] | MIC90 (Strep. agalact.) [µg/mL] | MIC90 (Staph. saproph.) [µg/mL] | MIC90 (Sarcina lutea) [µg/mL] | MIC90 (Strep. pneumoniae) [µg/mL] | MIC90 (Strep. faecalis) [µg/mL] | SMILES | Minimal Inhibitory Concentration (Strep. agalact.) | Minimal Inhibitory Concentration (Staph. saproph.) | Minimal Inhibitory Concentration (Strep. pneumoniae) | Minimal Inhibitory Concentration (Strep. faecalis) | Minimal Inhibitory Concentration (Staph. aureus)
32 (≈ 34.7 µM) |  |  | 1 (≈ 1.08 µM) |  |  | CCC1OC(=O)CC(O)C(C)C(OC2OC(C)C(OC3CC(C)(O)C(O)C(C)O3)C(N(C)C)C2O)C(CCO)CC(C)C(=O)CCC(C)CC1COC1OC(C)C(O)C(OC)C1OC (centres unmarked) [III, 10,11,12,13-tetrahydro relomycin] | R | R | R | R | 
4 (≈ 4.34 µM) | 2 to 8 (≈ 2.17 to 8.68 µM) | 2 to 4 (≈ 2.17 to 4.34 µM) | 0.5 (≈ 0.542 µM) | 0.5 (≈ 0.542 µM) | 8 to 32 (≈ 8.68 to 34.7 µM) | CCC1OC(=O)CC(O)C(C)C(OC2OC(C)C(OC3CC(C)(O)C(O)C(C)O3)C(N(C)C)C2O)C(CC=O)CC(C)C(O)CCC(C)CC1COC1OC(C)C(O)C(OC)C1OC (centres unmarked) [VI, 9-deoxo-9-hydroxy-10,11,12,13-tetrahydro tylosin] |  |  |  |  | 
1 to 4 (≈ 1.07 to 4.3 µM) | 0.5 (≈ 0.537 µM) | 0.5 to 2 (≈ 0.537 to 2.15 µM) | 0.5 (≈ 0.537 µM) | 0.5 (≈ 0.537 µM) | 1 to 4 (≈ 1.07 to 4.3 µM) | CCC1OC(=O)CC(O)C(C)C(OC2OC(C)C(OC3CC(C)(O)C(O)C(C)O3)C(N(C)C)C2O)C(CC=NO)CC(C)C(=O)C=CC(C)=CC1COC1OC(C)C(O)C(OC)C1OC (centres unmarked) [XII, Tylosin aldoxime] |  |  |  |  | 
8 to 16 (≈ 8.55 to 17.1 µM) |  | 8 (≈ 8.55 µM) | 0.5 (≈ 0.535 µM) | 1 (≈ 1.07 µM) |  | CCC1OC(=O)CC(O)C(C)C(OC2OC(C)C(OC3CC(C)(O)C(O)C(C)O3)C(N(C)C)C2O)C(CC=NO)CC(C)C(=O)CCC(C)CC1COC1OC(C)C(O)C(OC)C1OC (centres unmarked) [XIX, 10,11,12,13-tetrahydro tylosin aldoxime] |  |  |  |  | 
 |  |  | 0.5 (≈ 0.534 µM) | 64 (≈ 68.3 µM) |  | CCC1OC(=O)CC(O)C(C)C(OC2OC(C)C(OC3CC(C)(O)C(O)C(C)O3)C(N(C)C)C2O)C(CCO)CC(C)C(=NO)CCC(C)CC1COC1OC(C)C(O)C(OC)C1OC (centres unmarked) [XXIII, 10,11,12,13-tetrahydro relomycin oxime] | R | R |  | R | R

Second part, the compound before the results:

SMILES | MIC90 (Staph. aureus) [µg/mL] | MIC90 (Strep. agalact.) [µg/mL] | MIC90 (Staph. saproph.) [µg/mL] | MIC90 (Sarcina lutea) [µg/mL] | MIC90 (Strep. pneumoniae) [µg/mL] | MIC90 (Strep. faecalis) [µg/mL] | Minimal Inhibitory Concentration (Strep. agalact.) | Minimal Inhibitory Concentration (Staph. saproph.) | Minimal Inhibitory Concentration (Strep. pneumoniae) | Minimal Inhibitory Concentration (Strep. faecalis) | Minimal Inhibitory Concentration (Staph. aureus)
CCC1OC(=O)CC(O)C(C)C(OC2OC(C)C(OC3CC(C)(O)C(O)C(C)O3)C(N(C)C)C2O)C(CC=O)CC(C)C(=O)CCC(C)CC1COC1OC(C)C(O)C(OC)C1OC (centres unmarked) [II, 10,11,12,13-tetrahydro tylosin] | 2 to 4 (≈ 2.17 to 4.35 µM) | 1 to 2 (≈ 1.09 to 2.17 µM) | 1 to 2 (≈ 1.09 to 2.17 µM) | 0.5 (≈ 0.543 µM) | 0.5 (≈ 0.543 µM) | 4 to 8 (≈ 4.35 to 8.69 µM) |  |  |  |  | 
CCC1OC(=O)CC(O)C(C)C(OC2OC(C)C(OC3CC(C)(O)C(O)C(C)O3)C(N(C)C)C2O)C(CCO)CC(C)C(=O)C=CC(C)=CC1COC1OC(C)C(O)C(OC)C1OC (centres unmarked) [Ia, 20-deoxo-20-hydroxy tylosin, reference compound] | 4 to 16 (≈ 4.36 to 17.4 µM) | 16 (≈ 17.4 µM) | 1 to 16 (≈ 1.09 to 17.4 µM) | 1 (≈ 1.09 µM) | 0.5 to 1 (≈ 0.545 to 1.09 µM) | 64 (≈ 69.7 µM) |  |  |  |  | 
CCC1OC(=O)CC(O)C(C)C(OC2OC(C)C(OC3CC(C)(O)C(O)C(C)O3)C(N(C)C)C2O)C(CCO)CC(C)C(=NO)C=CC(C)=CC1COC1OC(C)C(O)C(OC)C1OC (centres unmarked) [XVIII, relomycin oxime] | 64 (≈ 68.6 µM) | 64 (≈ 68.6 µM) | 4 to 16 (≈ 4.29 to 17.1 µM) | 0.5 (≈ 0.536 µM) | 0.5 (≈ 0.536 µM) |  |  |  |  | R | 
CCC1OC(=O)CC(O)C(C)C(OC2OC(C)C(OC3CC(C)(O)C(O)C(C)O3)C(N(C)C)C2O)C(CC=NO)CC(C)C(=NO)CCC(C)CC1COC1OC(C)C(O)C(OC)C1OC (centres unmarked) [XX, 10,11,12,13tetrahydro tylosin dioxime] | 16 to 32 (≈ 16.8 to 33.7 µM) |  | 16 (≈ 16.8 µM) | 1 (≈ 1.05 µM) | 2 to 4 (≈ 2.1 to 4.21 µM) |  |  |  |  |  | 
